Measured values taken from publication PMC11236999, “Antagonism of propofol anesthesia by alkyl-fluorobenzene derivatives” (Scientific Reports, 2024).
Entries after “also recorded” stand apart in the source; their conditions may differ. Where two headings read alike, the source gives them in different places.

Legend:
5 dpf larval zebrafish [1] = assay: Zebrafish behavioral model of anesthesia, elicited movement (EM, tap stimulus); type: in vivo; conditions: for Antagonism of propofol via EM: screen
Protocol: (§1) Figure 2 Screening of PFAL compounds for antagonism of anesthesia. PFAL compounds were screened in 5 dpf zebrafish for their ability to antagonize the anesthetic effects of propofol (panels a, b, c and d) as well as sevoflurane and isoflurane (panels e and f). Each dot represents the data collected from one fish. Spontaneous movement (SM) is the distance of spontaneous swimming in a 4 min period, and elicited movement (EM) is distance moved in 1 s after exposure to a tap stimulus. Both measures were scaled to same-day DMSO controls. […] Mean and 95% CI are shown for each data set. Statistical comparison with both DMSO (D) only (black asterisks) and anesthetic control (Ctrl, gray asterisks) groups are shown. Note that each DMSO comparison is to the DMSO only control (sample on the furthest left of each graph, and the anesthetic control comparisons are made within each anesthetic grouping as indicated by the bars along the x-axis of each graph. ns: P > 0.05, *: P ≤ 0.05, **: P ≤ 0.01, ***: P ≤ 0.001, ****: P ≤ 0.0001).
(§2) Behavioral experiments (screening, EC50 curves) were performed as previously reported. Antagonism after induction was conducted in a similar manner with different timepoints and solution changes as indicated. The DanioVision Observation Chamber (Noldus) and Ethovision XT16 software were used to track and record (1280 × 960 resolution at 25 frames per second) larval zebrafish (5 dpf) movement in glass 96-well plates (Zissner North America 3,600,500). All experiments were performed at 28 °C with the DanioVision Temperature Control Unit. Zebrafish were allowed to equilibrate in E3 and 2% DMSO (with or without drug) for 10 min before being placed in the observation chamber for 22 min of recording. Two different endpoints were used to assess depth of anesthesia: spontaneous movement (SM) and elicited movement (EM). In these measures, fish movement was considered to be non-anesthetized. During each observation, fish were given time to acclimate to the chamber, and minutes 15–19 of the recording were used for analysis of SM. An EM response using the Daniovision tapping device (8 out of 8 intensity, movement response measured for 1 s after stimulus) was also measured at the end of the SM observation period. All recordings were scrutinized by a blind observer for technical errors in tracking to ensure accuracy of zebrafish detection and inaccurate tracking was excluded from further analysis. Toxicity was measured in separate experiments by exposing larvae to compounds for 30 min, transferring to fresh E3, and then observing mortality after exposure. […]

5 dpf larval zebrafish [2] = assay: Zebrafish behavioral model of anesthesia, spontaneous movement (SM); type: in vivo; conditions: for Antagonism of propofol via SM: screen; for Spontaneous movement (SM), compound alone: PFAL compound alone at 10 and 30 μM, versus DMSO control; for Antagonism of propofol via SM at 5 μM propofol: propofol 5 μM
Protocol: as §1, §2

5 dpf zebrafish = assay: Antagonism of anesthesia after induction (sequential addition); type: in vivo; conditions: propofol 3 μM for 10 min, then propofol 3 μM plus 30 μM compound
Protocol: In the above studies, the anesthetic and PFAL compounds were co-administered to the fish simultaneously.
Figure 5 Further Characterization of Propofol Antagonism with Compounds 9 and 10. a and b 5 dpf zebrafish (n = 36) were first anesthetized with 3 μM propofol and then 30 μM of either compound 9 or 10 was added. Between minutes 5 and 10 there is a small gap in the data during which the propofol solution was removed and a solution containing propofol and PFAL compound was added. […] The mean and 95% CI is shown for each data point in all panels.
Behavioral experiments (screening, EC50 curves) were performed as previously reported. Antagonism after induction was conducted in a similar manner with different timepoints and solution changes as indicated. The DanioVision Observation Chamber (Noldus) and Ethovision XT16 software were used to track and record (1280 × 960 resolution at 25 frames per second) larval zebrafish (5 dpf) movement in glass 96-well plates (Zissner North America 3,600,500). […] An EM response using the Daniovision tapping device (8 out of 8 intensity, movement response measured for 1 s after stimulus) was also measured at the end of the SM observation period. […] Toxicity was measured in separate experiments by exposing larvae to compounds for 30 min, transferring to fresh E3, and then observing mortality after exposure.

[3] = biological target: T1, horse spleen apoferritin (HSAF) (Equus caballus, UniProt P02791); assay: 1-Aminoanthracene (1-AMA) competition fluorescence assay; type: binding
T1 construct: model protein HSAF (horse spleen apoferritin); purchased Sigma-Aldrich; host or cells: horse spleen (tissue-derived)
T1 sequence (P02791 2-175 limits assumed): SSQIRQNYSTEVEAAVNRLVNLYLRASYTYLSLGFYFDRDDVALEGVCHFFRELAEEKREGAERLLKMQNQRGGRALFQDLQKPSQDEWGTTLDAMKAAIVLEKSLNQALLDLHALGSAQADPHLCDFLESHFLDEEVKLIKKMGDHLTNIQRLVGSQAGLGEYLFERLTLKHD

[4] = at 20°C; no reference given; cited from earlier work
5 dpf larval zebrafish [5] = tested on: 5 dpf larval zebrafish; design: method as in PMID 32978423; conditions: 5 dpf zebrafish, previously determined; read-out: EC50 for SM of the anesthetic; cited from earlier work
5 dpf larval zebrafish [6] = tested on: 5 dpf larval zebrafish; design: method as in PMID 32978423; conditions: 5 dpf zebrafish, previously determined; read-out: EC50 for EM of the anesthetic; cited from earlier work
[7] = HPLC concentration of volatile anesthetics in sealed glass 96-well plates over time; type: physicochemical; conditions: 3M 300LSE adhesive seal, 3-hour mark
Protocol: Behavioral Experiments with Volatile Anesthetics. Solutions of inhaled volatile anesthetics were stored in glass vials with minimal head space and were transferred utilizing Hamilton gas-tight syringes to prevent evaporative loss. Isoflurane (Primal Care) was stored at 4°C, and sevoflurane (AbbVie Inc.) was stored at -20°C. Solutions were made in DMSO and then diluted in glass scintillation vials to the desired experimental concentrations in E3 (embryo water). Each vial contained 22 mL of E3 which minimized head space to prevent drug loss. Vials were sealed quickly after addition of volatile anesthetics to minimize loss. Solutions were mixed via vortexing, and anesthetics dissolved readily in the final DMSO concentration of 2%. […]
have a significant change in zebrafish behavior. To assure consistent concentration of volatile anesthetic, this experiment was repeated without fish and concentrations were measured by HPLC. […]
1-Aminoanthracene Competition Fluorescence Assay. […] After filtration, the 1-AMA concentration was determined by UV−vis spectroscopy utilizing an experimentally determined extinction coefficient of 1-AMA (Σ368 = 4073 M−1 cm−1).4 Stock solutions of ligand were prepared in DMSO. […] The fluorescence curves were corrected by subtracting contributions from 1-AMA alone and HSAF alone. Fluorescence intensities at 515 nm were plotted as a percentage […]

[8] = 10 μM PFAL compound co-administered with propofol
[9] = 30 μM PFAL compound co-administered with propofol (0.3, 1, 5 μM)

With `Cc1ccccc1F` [Compound 2, 1-methyl-2-fluorobenzene] the “Antagonism of propofol via EM” value (5 dpf larval zebrafish [1]; [8]) was “not to be statistically different than the propofol controls”.

In the case of `CCc1ccc(CC)c(F)c1` [Compound 7, 1,4-diethyl-2-fluorobenzene], the “Antagonism of propofol via EM” value (5 dpf larval zebrafish [1]; 30 μM PFAL compound co-administered with propofol) is reported as “did not antagonize propofol”, the “Antagonism of propofol via SM” value (5 dpf larval zebrafish [2]; [9]) is reported as “showed antagonism of propofol; also recorded: statistically significant antagonism” and the “Spontaneous movement (SM), compound alone” value (5 dpf larval zebrafish [2]) is reported as “increased SM”.

With `CC(C)c1ccc(C(C)C)c(F)c1` [Compound 10, 1,4-diisopropyl-2-fluorobenzene] the “Reversal of established propofol immobility” value (5 dpf zebrafish) was “rapid reversal of propofol immobility”, the “Elicited movement (EM), compound alone” value (5 dpf larval zebrafish [1]; PFAL compound alone at 10 and 30 μM, versus DMSO control) was “increased EM” and the “Schild-type analysis with EM” value (5 dpf larval zebrafish [1]; propofol EC50 curves (EM) at various concentrations of the compound, Fig. S6) was “no such relationship of antagonism was observed”. The “Inhibition of 1-AMA binding to HSAF” value ([3]; 15 μM 1-AMA, 15 μM HSAF dimer, ligand 1 to 125 μM) was “most potent inhibitors of 1-AMA binding”, the “Shape of IC50 curve for 1-AMA displacement” value ([3]; Fig. 6b) was “incomplete inhibition of 1-AMA binding” and the “Antagonism of propofol via SM” value (5 dpf larval zebrafish [2]; [8]) was “demonstrated antagonism of propofol”. The “Antagonism of propofol via SM at 1 μM propofol” value (5 dpf larval zebrafish [2]; 10 μM PFAL compound, propofol 1 μM) was “able to antagonize propofol”, the “Antagonism of propofol via SM at 5 μM propofol” value (5 dpf larval zebrafish [2]; 10 μM PFAL compound) was “did not show antagonism” and the “Antagonism of propofol via SM” value (5 dpf larval zebrafish [2]; [9]) was “showed antagonism of propofol; also recorded: statistically significant antagonism”. The “Antagonism of propofol via SM at 5 μM propofol” value (5 dpf larval zebrafish [2]; 30 μM PFAL compound) was “antagonized propofol”, the IC50 (5 dpf larval zebrafish [2]; Danio rerio, 120 h, 5 dpf zebrafish exposed to 3 μM propofol, Fig. 5d, read-out: IC50 (antagonism of propofol)) was 25.3 µM and the “Spontaneous movement (SM), compound alone” value (5 dpf larval zebrafish [2]) was “increased SM”. For the same molecule, the “Increase of propofol EC50 versus propofol alone, spontaneous movement” value (5 dpf larval zebrafish [2]; propofol plus 30 μM compound, Fig. 4a) was “~ fourfold”.

In the case of `CC(C)(C)c1ccccc1F` [Compound 11, 1-tertbutyl-2-fluorobenzene], the “Antagonism of propofol via EM” value (5 dpf larval zebrafish [1]; [8]) is reported as “not to be statistically different than the propofol controls”.

In the case of `CC(C)(C)c1ccc(C(C)(C)C)c(F)c1` [Compound 13, 1,4-ditertbutyl-2-fluorobenzene], the “Log(IC50), displacement of 1-AMA from HSAF” value ([3]; Fig. 6a, nb = non-binding) is reported as “nb”.

In the case of `FC(F)OC(Cl)C(F)(F)F` (centres unmarked) [Isoflurane], the Vapor pressure [4] is listed as 238 mmHg, the EC50 (5 dpf larval zebrafish [5]) is listed as 42 µM and the EC50 (5 dpf larval zebrafish [6]) is listed as 180 µM. The “Concentration remaining in sealed glass 96-well plate” value [7] was 96%.

With `C1CCc2nnnn2CC1` [Pentylenetetrazole, pentylenetetrazole, reference compound] the Pattern of movement (5 dpf larval zebrafish [2]; known epileptogenic comparator) was “uncontrolled movement (seizure)”.

In the case of `CC(C)c1cccc(C(C)C)c1O` [Propofol], the EC50 (5 dpf larval zebrafish [5]) is given as 0.1 µM, the EC50 (5 dpf larval zebrafish [6]) is given as 3.8 µM and the EC50 (5 dpf larval zebrafish [1]; Danio rerio, propofol alone, Fig. 4b) is given as 3.53 µM. For the same molecule, the EC50 (5 dpf larval zebrafish [2]; Danio rerio, propofol alone, Fig. 4a) was 0.14 µM.

For `FCOC(C(F)(F)F)C(F)(F)F` [Sevoflurane], the Vapor pressure [4] is given as 157 mmHg, the EC50 (5 dpf larval zebrafish [5]) is given as 76 µM and the EC50 (5 dpf larval zebrafish [6]) is given as 240 µM. For the same molecule, the “Concentration remaining in sealed glass 96-well plate” value [7] was “constant”.
